Data: US20260028364A1, “CATIONIC CHROMENONES AND THEIR USE IN ONCOLOGY” (FLORATEK PHARMA S.A., priority 2022, published 2026)
Each block holds one molecule with its values, some of them ahead of it.

Tests used:
Type in all cases: cell-based
Wnt/Beta-Catenin = assay: SelectScreen CellSensor pathway inhibition, Wnt/Beta-Catenin; details: LEF-TCF-bla HCT116, no stimulus (constitutively activated)
Protocol: (§1) Inhibition of various cellular pathways known to be involved in malignancy was tested using the SelectScreen Cell-based Pathway Profiling GeneBLAzer™ cell signaling pathway specific CellSensor™ cell lines ((Thermo Fisher). The assay is based on a beta-lactamase reporter activity which is modulated and can be measured quantitatively and selectively with the LiveBLAzer™-FRET B/G Loading Substrate. SelectScreen Cell-Based Pathway Profiling Service uses XLfit from IDBS. The dose response curve is curve fit to model number 205 (sigmoidal dose-response model). Custom logic was built by Thermo Fisher for the data analysis tool to address the different compound characteristics that can be observed with functional assays.
Wnt/Beta-Catenin—LEF-TCF-bla HCT116—Inhibitor Screen, Constitutively Activated
LEF-TCF-bla HCT116 cells are thawed and resuspended in Assay Media (OPTI-MEM, 0.5% dialyzed FBS, 0.1 mM NEAA, 1 mM Sodium Pyruvate, 100 U/mL/100 μg/mL Pen/Strep) to a concentration of 312,500 cells/mL. 32 μL of cell suspension is added to each well of a 384-well Poly-D-Lysine assay plate. Cells in Assay Media are incubated for 16-24 hours in the plate at 37° C./5% CO2 in a humidified incubator. 4 μL of a 10× serial dilution of ICG-001 (control inhibitor starting concentration, 25,000 nM) or compounds are added to appropriate wells of the plate. […] The plate is read on a fluorescence plate reader.

JAK/STAT = assay: SelectScreen CellSensor pathway inhibition, JAK/STAT; details: ISRE-bla Jurkat, stimulus IFN-alpha
Protocol: as §1
JAK/STAT—ISRE-bla HEK 293T—Inhibitor Screen, Activated by IFN-Alpha
ISRE-bla HEK 293T cells are thawed and resuspended in Assay Media (OPTI-MEM, 0.5% dialyzed FBS, 0.1 mM NEAA, 1 mM Sodium Pyruvate, 100 U/mL/[…] Pen/Strep) to a concentration of 625,000 cells/mL. 32 μL of cell suspension is added to each well of a 384-well TC-Treated assay plate. Cells in Assay Media are incubated for 16-24 hours in the plate at 37° C./5% CO2 in a humidified incubator. […] 4 μL of 10× control activator IFN-alpha at the pre-determined EC80 concentration is added to wells containing the control inhibitor or compounds. […] The plate is read on a fluorescence plate reader.

Oxidative Stress = assay: SelectScreen CellSensor pathway inhibition, Oxidative Stress; details: ARE-bla HepG2, stimulus tBHQ
Protocol: as §1
Oxidative Stress—ARE-bla HepG2—Inhibitor Screen, Activated by tBHQ
ARE-bla HepG2 cells are thawed and resuspended in Assay Media (DMEM, 10% dialyzed FBS, 25 mM HEPES pH 7.3, 0.1 mM NEAA, 100 U/mL/100 μg/mL Pen/Strep) to a concentration of 375,000 cells/mL. 32 μL of cell suspension is added to each well of a 384-well Poly-D-Lysine assay plate. Cells in Assay Media are incubated for 16-24 hours in the plate at 37° C./5% CO2 in a humidified incubator. […] The plate is read on a fluorescence plate reader.

[1] = biological target: Toll-like Receptor (TLR4); assay: SelectScreen CellSensor pathway inhibition, Toll-like Receptor (TLR4); details: NFkB-bla THP-1, stimulus LPS
Protocol: as §1
Toll-like Receptor (TLR4)—NFKB-bla THP-1—Inhibitor Screen, Activated by LPS
NFKB-bla THP-1 cells are thawed and resuspended in Assay Media (RPMI, 0.5% dialyzed FBS, 0.1 mM NEAA, 1 mM Sodium Pyruvate, 100 U/mL/[…] Pen/Strep) to a concentration of 625,000 cells/mL. 32 μL of cell suspension is added to each well of a 384-well TC-Treated assay plate. Cells in Assay Media are incubated for 16-24 hours in the plate at 37° C./5% CO2 in a humidified incubator. […] The plate is read on a fluorescence plate reader.

IC50 (Wnt/Beta-Catenin): 1830 nM
Molecule: O=C1[C@H](Cc2ccc(O)cc2)N2C(=O)CCN(C(=O)NCc3ccccc3)[C@H]2CN1Cc1cccc2ccccc12 [ICG-001, reference compound]

Molecule: JAK Inhibitor I [reference compound]
IC50 (JAK/STAT): 19 nM

IC50 (Oxidative Stress): 1670 nM | IC50 [1]: 460 nM
Molecule: Cn1cc(C2=C(c3cn(CCCSC(=N)N)c4ccccc34)C(=O)NC2=O)c2ccccc21 [Ro-31-8220, reference compound]
